Patent EP0358154B1, “Novel cyclobutane derivative and process for producing same” (NIPPON KAYAKU KABUSHIKI KAISHA, priority 1988, dated 1990)
Values after ≈ are worked out from the molar mass of the structure shown. Read-outs that look alike come from different tables or passages of the source.

Key:
[1] = test system: simple Herpes 1 type virus (HSV-I); assay: Plaque formation inhibition, HSV-I on Vero cell monolayer (Method 1); assay type: cell-based; settings: read-out: IC50(µg/ml) HSV-1
Procedure: (§1) Antiviral activities against simple Herpes 1 type virus (HSV-I) and simple Herpes 2 type virus (HSV-II), both belonging to DNA virus, were examined by the following methods.
(§2) A 6-well multi-plate having a single layer of Vero cell (derived from the kidney cell of African Green-Monkey was infected with 100 to 150 PFU (plaque forming units) of virus. After adsorption at 37°C for one hour, a layer of agar medium (Eagle MEM medium containing 1.5% of agar) containing a varied concentration of sample was superposed thereon, and a cultivation was carried out at 37°C for 48 hours in 5% (v/v) carbon dioxide incubator. The formation of plaque was measured, from which 50% inhibitory value (IC50) was determined.

human leukemia P388 cell = assay: Growth inhibition of P388 cells, cell counting (Method 6); assay type: cell-based; settings: read-out: IC50(µg/ml) P388
Procedure: (§3) Carcinostatic activities on human cervical cancer HeLa S3 cell, mouse leukemia L1210 cell and […] cell were examined by the following methods. Cells of P388 and L1210 were spread onto a 24-well plate. After adding a sample, it was cultured at 37°C for 48 hours in 5% CO2 incubator. After the culture, the number of cells was counted by means of […]. The growth inhibitory rate in the treated group, based on that in the control group, was calculated from the following equation, from which 50% inhibitory concentration (CI50, micrograms/ml) was determined: The results obtained are as shown in Table 3. Growth inhibitory rate (%) = [1-(NT -NO )/NC -NO ] x 100 [formula] wherein NT = Cell number in treated group NO = cell number at the start of culture NC = Cell number in control group Table 3

[2] = test system: Human Immunodeficiency Virus (HIV); assay: Anti-HIV activity in MT-4 cells, virus antigen by fluorescent antibody method (Method 4); assay type: cell-based; settings: Human immunodeficiency virus 1, MT4, 96 h, read-out: IC50(µg/ml) HIV
Procedure: Antiviral activity against Human Immunodeficiency Virus (HIV) belonging to […] was examined by the following method.
MT-4 cell (about 50,000 cells/ml) was introduced into a 24-well tray, to which was added […] of a solution containing a predetermined quantity of sample compound. Culture was carried out at 37°C for 2 hours in 5% (v/v) carbon dioxide incubator. Then, 10^3 to 10^4 infection units of HIV was added and cultured for 4 days, after which a part of the culture fluid was applied onto a slide glass and immobilized with acetone and development of virus antigen was tested by fluorescent antibody method.
As the primary antibody of fluorescent antibody method, serum of AIDS patient was used. As the secondary antibody, […] was used.

B hepatitis virus (HBV) = assay: Anti-HBV activity in HB611 liver cells, HBV DNA by Southern method (Method 3); assay type: cell-based; settings: read-out: IC50(µg/ml) HBV
Procedure: Antiviral activity against B hepatitis virus (HBV) belonging to DNA virus was examined by the following method.
According to the procedure of Dulbecco (Proc. Natl. Acad. Sci. USA, 84, 444 (1987)), cultured liver cell strain HB611 producing and releasing active B hepatitis virus was cultured in a modified Eagle medium (GIBCO) at 37°C at a CO2 concentration of 5% in the presence of 10% fetal calf serum, 200 micrograms/ml of G418, 100 µ/ml of Penicillin and 100 µ/ml of Streptomycin. The culture fluid was inoculated onto a 6-well plate at a rate of 5 x 10^4 cells/well (35 mm). One or two days after, 50% confluence was reached, when a predetermined quantity of sample compound was added and cultivation was continued. Thereafter, cultivation was continued for 15 days, while refreshing the medium with a fresh medium containing the same concentrations of the chemicals at intervals of 3 days. Then, the medium was removed, and the cell bodies were treated with 0.5 ml of Lysis buffer (10 mM Tris HCl, pH 7.8/5 mM Na2EDTA, 1% SDS/0.1 mg/ml […]) at 37°C for one hour and dissolved thereinto. The DNA thus obtained was purified by RNase treatment, phenolchloroform treatment and ethanol precipitation.
Then, 5 micrograms of DNA was subjected to Hind III treatment, and DNA pattern was analyzed according to Southern method by using ^32P-labelled B hepatitis virus DNA as a probe.

[3] = test system: human Cytomegalovirus (HCMV); assay: Anti-HCMV plaque formation inhibition on human embryonal fibroblast (Method 2); assay type: cell-based; settings: read-out: IC50(µg/ml) HCMV
Procedure: Antiviral activity against human Cytomegalovirus (HCMV) belonging to DNA virus was examined by the following method.
Anti-HCMV activity was determined in the following manner. Thus, a 35 mm dish having a single layer of human embryonal fibroblast was infected with 100 PFU of HCMV (A0169 strain). After adsorption for one hour, one layer of a medium (0.5% agarose, 2% fetal calf serum) containing a varied concentration of sample compound was superposed thereon, and cultivation was carried out at 37°C for 10 days in 5% (v/v) carbon dioxide incubator. Then, formation of plaque was measured, from which 50% inhibitory value (IC50) was determined.

[4] = test system: mouse leukemia L1210 cell; assay: Growth inhibition of L1210 cells, cell counting (Method 6); assay type: cell-based; settings: read-out: IC50(µg/ml) L1210
Procedure: as §3

[5] = test system: human cervical cancer HeLa S3 cell; assay: Growth inhibition of HeLa S3 cells, Methylene Blue dyeing (Method 5); assay type: cell-based; settings: read-out: IC50(µg/ml) HeLaS3
Procedure: Carcinostatic activities on human cervical cancer HeLa S3 cell, mouse leukemia L1210 cell and […] cell were examined by the following methods. HeLa S3 cell was made into a suspension (7.5 x 10^3 cells/ml). The suspension was spread on a 96-well flat plate at a rate of 0.2 ml/well. After culturing it at 37°C for 24 hours in 5% carbon dioxide incubator, 10 microliters of a sample was added and cultivation was carried out for 72 hours. Then, culture fluid was taken out from each well and immobilized with methanol, after which 0.1 ml/well of 0.05% Methylene Blue/10 mM-Tris-HCl (pH 8.5) solution was added and dyeing was carried out at room temperature for 30 minutes. The dyed fluid in each well was withdrawn by means of aspirator and three times washed with pure water. Then, 3% HCl was added at a rate of 0.2 ml/well and the resulting mixture was sealed and allowed to stand at room temperature for about 24 hours, to extract pigment from the cells. Optical absorbance of each well at 660 nm was measured by means of […] Microplate Reader, from which growth inhibitory rate (%) at varied concentration was calculated according to the following equation. […] Growth inhibitory rate (%) = (1 - A1 /A0 ) x 100 [formula] wherein A1 = Absorbance in the treated group, A0 = Absorbance in the control group.

[6] = test system: simple Herpes 2 type virus (HSV-II); assay: Plaque formation inhibition, HSV-II on Vero cell monolayer (Method 1); assay type: cell-based; settings: read-out: IC50(µg/ml) HSV-2
Procedure: as §1, §2

[7] = test system: herpes simplex virus type 2 (HSV-2); assay: HSV-2 infection in mice, survival (Experimental Example 6); assay type: in vivo, Balb/c mice; settings: for Means survival time / Survivors/Total: once a day for 10 days, monitored 20 days
Procedure: Activity of the sample (compound No. 2) against herpes simplex virus type 2 (HSV-2) infection was examined in mice. Balb/c mice (6 week-old, male) were inoculated intraperitoneally (l.p.) with HSV-2 strain 186 at 4.8 x 10^5 PFU/0.2 ml per mouse. The sample was formulated in saline and applied either orally (p.o.) or i.p. at the indicated doses once a day for 10 days, starting 6 hrs after virus infection. The mortality was monitored for 20 days after inoculation. Efficacy of the sample was indicated as extension of survival time and number of survivors. Aciclovir (ACV: commercialized antiviral agent) was used as reference sample.

Nc1ncnc2c1ncn2[C@@H]1C[C@H](CO)[C@H]1CO [Compound 1, 9-[(1R,2R,3S)-2,3-Bis(hydroxymethyl)cyclobutane-1-yl] -adenine] was tested, and the IC50 ([1]; Human alphaherpesvirus 1, Vero cell, plaque formation, 48 hours) was 7.3 µg/mL (≈ 29.3 µM), the IC50 (human leukemia P388 cell; P388, 48 hours, growth inhibition) was 0.58 µg/mL (≈ 2.33 µM) and the IC50 ([2]; MT-4 cell, cultured for 4 days, virus antigen) was 0.03 µg/mL (≈ 0.12 µM). It also gave an IC50 (B hepatitis virus (HBV); 360 h, HB611 cells, 15 days, HBV DNA) of 0.024 µg/mL (≈ 0.0963 µM), an IC50 ([3]; Human betaherpesvirus 5, 240 h, human embryonal fibroblast, A0169 strain, plaque formation, 10 days) of 12 µg/mL (≈ 48.1 µM) and an IC50 ([4]; L1210, 48 hours, growth inhibition) of 1.1 µg/mL (≈ 4.41 µM). For the same compound, the IC50 ([5]; HeLa S3, 72 hours, growth inhibition) was 14 µg/mL (≈ 56.2 µM) and the IC50 ([6]; Human alphaherpesvirus 2, Vero cell, plaque formation, 48 hours) was 8.9 µg/mL (≈ 35.7 µM).
In the case of Nc1nc2c(ncn2COCCO)c(=O)[nH]1 [ACV, Aciclovir, reference compound], the Means survival time ([7]; i.p., 12.5 mg/kg/day) is reported as 11.1 days, the Survivors/Total ([7]; i.p., 12.5 mg/kg/day) is reported as 1/10 and the Means survival time ([7]; i.p., 25 mg/kg/day) is reported as 12.7 days. For the same compound, the Survivors/Total ([7]; i.p., 25 mg/kg/day) was 1/10, the Means survival time ([7]; i.p., 50 mg/kg/day) was 16.1 days and the Survivors/Total ([7]; i.p., 50 mg/kg/day) was 5/10. For the same compound, the Means survival time ([7]; i.p., 100 mg/kg/day) was 5.4 days, the Survivors/Total ([7]; i.p., 100 mg/kg/day) was 2/10 and the Means survival time ([7]; p.o., 12.5 mg/kg/day) was 9.3 days. The Survivors/Total ([7]; p.o., 12.5 mg/kg/day) was 0/10, the Means survival time ([7]; p.o., 25 mg/kg/day) was 11.1 days and the Survivors/Total ([7]; p.o., 25 mg/kg/day) was 0/10. The Means survival time ([7]; p.o., 50 mg/kg/day) was 14.8 days, the Survivors/Total ([7]; p.o., 50 mg/kg/day) was 4/10 and the Means survival time ([7]; p.o., 100 mg/kg/day) was 14.3 days. For the same compound, the Survivors/Total ([7]; p.o., 100 mg/kg/day) was 2/10.
With Nc1nc2c(ncn2[C@@H]2C[C@H](CO)[C@H]2CO)c(=O)[nH]1 [Compound 2, 9-[(1R,2R,3S)-2,3-Bis(hydroxymethyl)cyclobutane-1-yl] -guanine] the IC50 ([1]; Human alphaherpesvirus 1, Vero, 48 h) was 0.03 µg/mL (≈ 0.113 µM), the IC50 (human leukemia P388 cell; P388, 48 h) was 1.6 µg/mL (≈ 6.03 µM) and the IC50 [2] was 0.3 µg/mL (≈ 1.13 µM). The Means survival time ([7]; i.p., 1.25 mg/kg/day) was 19.8 days, the Survivors/Total ([7]; i.p., 1.25 mg/kg/day) was 7/10 and the Means survival time ([7]; i.p., 2.5 mg/kg/day) was 18.9 days. For the same compound, the Survivors/Total ([7]; i.p., 2.5 mg/kg/day) was 9/10, the Means survival time ([7]; i.p., 5 mg/kg/day) was 20.0 days and the Survivors/Total ([7]; i.p., 5 mg/kg/day) was 10/10. For the same compound, the Means survival time ([7]; i.p., 10 mg/kg/day) was 20.0 days, the Survivors/Total ([7]; i.p., 10 mg/kg/day) was 10/10 and the Means survival time ([7]; i.p., 20 mg/kg/day) was 20.0 days. The Survivors/Total ([7]; i.p., 20 mg/kg/day) was 10/10, the “reducing mortality rate of mice infected with HSV-2” value ([7]; irrespective of administration routes (i.p., p.o.), 1.25 to 20 mg/kg per day) was “highly effective” and the Means survival time ([7]; p.o., 1.25 mg/kg/day) was 12.4 days. The Survivors/Total ([7]; p.o., 1.25 mg/kg/day) was 2/10, the Means survival time ([7]; p.o., 2.5 mg/kg/day) was 14.7 days and the Survivors/Total ([7]; p.o., 2.5 mg/kg/day) was 4/10. For the same compound, the Means survival time ([7]; p.o., 5 mg/kg/day) was 18.9 days, the Survivors/Total ([7]; p.o., 5 mg/kg/day) was 8/10 and the Means survival time ([7]; p.o., 10 mg/kg/day) was 19.8 days. The Survivors/Total ([7]; p.o., 10 mg/kg/day) was 9/10, the Means survival time ([7]; p.o., 20 mg/kg/day) was 19.7 days and the Survivors/Total ([7]; p.o., 20 mg/kg/day) was 9/10. The IC50 (B hepatitis virus (HBV); HB611, 360 h) was 0.86 µg/mL (≈ 3.24 µM), the IC50 ([3]; Human betaherpesvirus 5, Fibroblast, 240 h) was 0.4 µg/mL (≈ 1.51 µM) and the IC50 ([4]; L1210, 48 h) was 8.1 µg/mL (≈ 30.5 µM). It also gave an IC50 ([5]; HeLa S3, 72 h) of 19 µg/mL (≈ 71.6 µM) and an IC50 ([6]; Human alphaherpesvirus 2, Vero, 48 h) of 0.13 µg/mL (≈ 0.49 µM).
